Test results from the NIST ThermoML archive (doi:10.1021/je060032n).
Numbers after ± are expanded uncertainties.

Tests used:
[1] = xn = mol fraction of the nth substance listed; settings: 101 kPa, Liquid, x2 = 0; for viscosity: Capillary tube (Ostwald / Ubbelohde) method
[2] = refractive index (Na D-line) (dimensionless); xn = mol fraction of the nth substance listed; settings: 101 kPa, Liquid, Standard Abbe refractometry, x2 = 0
[3] = 101 kPa, Liquid; for viscosity: Capillary tube (Ostwald / Ubbelohde) method
[4] = refractive index (Na D-line) (dimensionless); settings: 101.33 kPa, Liquid, Standard Abbe refractometry

## O [water] + NCCNCCO
[1]; 298.15 K
  viscosity: 0.882 ± 0.027 mPa·s
[1]; 303.15 K
  viscosity: 0.804 ± 0.025 mPa·s
[1]; 313.15 K
  viscosity: 0.659 ± 0.02 mPa·s
[1]; 323.15 K
  viscosity: 0.551 ± 0.017 mPa·s
  mass density: 988.03 ± 0.19 kg/m3
[1]; 333.15 K
  viscosity: 0.47 ± 0.014 mPa·s
  mass density: 983.19 ± 0.2 kg/m3
[1]; 343.15 K
  viscosity: 0.407 ± 0.013 mPa·s
  mass density: 977.75 ± 0.2 kg/m3
[2]; 298.15 K
  refractive index: 1.33258 ± 0.00033
[2]; 303.15 K
  refractive index: 1.33202 ± 0.00034
[2]; 313.15 K
  refractive index: 1.33067 ± 0.00035
[2]; 323.15 K
  refractive index: 1.32909 ± 0.00035
[2]; 333.15 K
  refractive index: 1.3273 ± 0.00036

## NCCNCCO [N-(2-aminoethyl)ethanolamine]
[3]; 298.15 K
  mass density: 1025.28 ± 0.55 kg/m3
  viscosity: 98.6 ± 3.2 mPa·s
[3]; 303.15 K
  mass density: 1021.53 ± 0.55 kg/m3
  viscosity: 70.5 ± 2.2 mPa·s
[3]; 313.15 K
  mass density: 1014.02 ± 0.54 kg/m3
  viscosity: 39.4 ± 1.2 mPa·s
[3]; 323.15 K
  mass density: 1006.44 ± 0.53 kg/m3
  viscosity: 23.4 ± 0.7 mPa·s
[3]; 333.15 K
  mass density: 998.83 ± 0.53 kg/m3
  viscosity: 14.8 ± 0.5 mPa·s
[3]; 343.15 K
  mass density: 991.15 ± 0.53 kg/m3
  viscosity: 10.1 ± 0.3 mPa·s
[4]; 298.15 K
  refractive index: 1.48454 ± 0.00052
[4]; 303.15 K
  refractive index: 1.48269 ± 0.00053
[4]; 313.15 K
  refractive index: 1.47884 ± 0.00053
[4]; 323.15 K
  refractive index: 1.47516 ± 0.00053
[4]; 333.15 K
  refractive index: 1.47128 ± 0.00054
